In the supplement of paper PMC10307832:

Key:
Test in all cases: relative viability (nuclei count vs DMSO), 5 days (fraction); higher = more cells survive
[1] = compound: C1=CC2=C(C=C(C(=C2N=C1)O)N=NC3=CC4=C(C=C3)C=C(C=C4)S(=O)(=O)O)S(=O)(=O)O + COc1cccc2cc(-c3nc([C@H]4CC[C@H](C(=O)O)CC4)n4ncnc(N)c34)[nH]c12 [OSI-027] (partner 0.5 µM)
Method in brief: (§1)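 For relative viability, nuclei counts in treated wells were divided by those in vehicle wells. Lung cancer cell lines had been pin-tool dosed in 1536-well plates the day after seeding and cultured for 5 days, then fixed and stained in one step (final 0.05% Triton X-100, 1% formaldehyde, 1 ug/ml Hoechst) and imaged at 4×. Doses were one drug alone or a fixed anchor-drug dose plus five library-drug doses (not always all listed) in √10 steps, and values are duplicate-plate medians.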

[2] = compound: C1=CC2=C(C=C(C(=C2N=C1)O)N=NC3=CC4=C(C=C3)C=C(C=C4)S(=O)(=O)O)S(=O)(=O)O + C[C@@H](Oc1cc(-c2cnn(C3CCNCC3)c2)cnc1N)c1c(Cl)ccc(F)c1Cl [Crizotinib] (partner 1 µM)
Method in brief: as §1

[3] = compound: C1=CC2=C(C=C(C(=C2N=C1)O)N=NC3=CC4=C(C=C3)C=C(C=C4)S(=O)(=O)O)S(=O)(=O)O + Nc1ncn([C@H]2C[C@H](O)[C@@H](CO)O2)c(=O)n1 [Decitabine] (partner 2 µM)
Method in brief: as §1

AT-7519 + OSI-027 = compound: O=C(NC1CCNCC1)c1n[nH]cc1NC(=O)c1c(Cl)cccc1Cl [AT-7519] + COc1cccc2cc(-c3nc([C@H]4CC[C@H](C(=O)O)CC4)n4ncnc(N)c34)[nH]c12 [OSI-027] (partner 0.5 µM)
Method in brief: as §1

Cell Line	relative viability ([1]; first compound 0.08 µM)	relative viability ([1]; first compound 0.253 µM)	relative viability ([1]; first compound 0.8 µM)	relative viability ([1]; first compound 2.53 µM)	relative viability ([1]; first compound 8 µM)	relative viability ([2]; first compound 0.08 µM)	relative viability ([2]; first compound 0.253 µM)	relative viability ([2]; first compound 0.8 µM)	relative viability ([2]; first compound 2.53 µM)	relative viability ([2]; first compound 8 µM)	relative viability ([3]; first compound 0.08 µM)	relative viability ([3]; first compound 0.253 µM)	relative viability ([3]; first compound 0.8 µM)	relative viability ([3]; first compound 2.53 µM)	relative viability ([3]; first compound 8 µM)	relative viability (AT-7519 + OSI-027; first compound 0.01 µM)	relative viability (AT-7519 + OSI-027; first compound 0.03162 µM)	relative viability (AT-7519 + OSI-027; first compound 0.3162 µM)	relative viability (AT-7519 + OSI-027; first compound 1 µM)
COR-L23	0.884	0.781	0.725	0.612	0.802	0.653	0.63	0.572	0.671	0.502	0.495	0.448	0.421	0.508	0.407	0.672	0.778	0.459	0.294
NCI-H1793	0.285	0.289	0.246	0.264	0.314						0.527	0.521	0.409	0.47	0.49	0.229	0.254	0.285	0.247
NCI-H2342	0.529	0.657	0.603	0.563	0.674						0.793	0.705	0.724	0.806	0.705	0.628	0.533	0.591	0.62
NCI-H1299						0.892	0.971	0.933	0.943	0.988									
SW 900	0.55	0.554	0.608	0.517	0.424						0.442	0.412	0.448	0.473	0.538	0.489	0.581	0.624	0.424
NCI-H1648	0.259	0.251	0.263	0.253	0.185							0.525			0.551	0.265		0.262	0.293
NCI-H522	0.683	0.623	0.565	0.724	0.592						0.561	0.644	0.689	0.683	0.6		0.77	0.609	0.792
NCI-H1395	0.639	0.663	0.631	0.632	0.657						0.724	0.734	0.737	0.714	0.691	0.659	0.618	0.525	0.62
A549						0.909	0.738	0.754	0.694	0.754	0.4	0.252	0.286	0.231	0.207				
NCI-H1563	0.786	0.732	0.818	0.77	0.727	0.875	0.883	0.886	0.851	0.873						0.737	0.794	0.722	0.728
